Source: ChEMBL document CHEMBL1128456, “Synthesis and biological evaluation of N6-cycloalkyl derivatives of 1-deazaadenine nucleosides: a new class of anti-human immunodeficiency virus agents” (J Med Chem, 1995)

Legend:
Adenosine deaminase = target: T1, Adenosine deaminase (Bos taurus, UniProt P56658); experiment: Inhibition calf intestine adenosine deaminase
T1 sequence (P56658 whole entry): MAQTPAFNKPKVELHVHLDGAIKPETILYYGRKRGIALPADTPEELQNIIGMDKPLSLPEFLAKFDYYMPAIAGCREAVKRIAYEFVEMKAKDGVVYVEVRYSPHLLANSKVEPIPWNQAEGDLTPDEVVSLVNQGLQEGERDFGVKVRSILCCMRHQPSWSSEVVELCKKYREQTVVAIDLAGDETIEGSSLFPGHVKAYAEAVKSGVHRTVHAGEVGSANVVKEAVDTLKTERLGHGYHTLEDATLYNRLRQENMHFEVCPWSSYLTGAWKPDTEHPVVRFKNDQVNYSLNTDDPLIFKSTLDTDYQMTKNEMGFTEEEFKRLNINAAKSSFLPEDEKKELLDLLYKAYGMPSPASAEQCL

[1] = test system: Human immunodeficiency virus 1; experiment: In vitro evaluation of anti-HIV-1 activity in C8166 cells infected with HIV-1 IIIB.; format: functional; conditions: Human immunodeficiency virus 1, C8166; read-out: ED50 (the source's name)
[2] = In vitro evaluation of cytotoxicity in C8166 cells infected with HIV-1 IIIB.; format: cell-based; conditions: human, read-out: TC50 (the source's name)

Row | Ki (Adenosine deaminase) | EC50 [1] | Structure (SMILES) | CC50 [2]
1 | 92 µM | 50 µM | OCC1CCC(n2cnc3c(NC4CCC4)ccnc32)O1 (stereo unspecified) | 400 µM
2 | 11 µM | > 100 µM | CNc1cc(Cl)nc2c1ncn2C1CCC(CO)O1 (stereo unspecified) | > 100 µM
3 | 2.2 µM | 50 µM | CNc1ccnc2c1ncn2C1CCC(CO)O1 (stereo unspecified) | 100 µM
4 | 30 µM | > 100 µM | Nc1cc(Cl)nc2c1ncn2[C@@H]1O[C@H](CO)[C@@H](O)[C@H]1O | > 100 µM
5 | 97 µM | 100 µM | OC[C@H]1O[C@@H](n2cnc3c(NC4CCC4)cc(Cl)nc32)[C@H](O)[C@@H]1O | 400 µM
6 | 38 µM | > 100 µM | OC[C@H]1O[C@@H](n2cnc3c(NC4CC4)ccnc32)[C@H](O)[C@@H]1O | > 100 µM
7 | 100 µM | > 100 µM | OC[C@H]1O[C@@H](n2cnc3c(NC4CCC4)ccnc32)[C@H](O)[C@@H]1O | > 100 µM
8 | 75 µM | 8 µM | OC[C@H]1O[C@@H](n2cnc3c(NC4CC4)cc(Cl)nc32)C[C@@H]1O | 500 µM
9 | 42 µM | 30 µM | OC[C@H]1O[C@@H](n2cnc3c(NC4CCCCCC4)ccnc32)C[C@@H]1O | 80 µM
10 | 22 µM | 40 µM | OC[C@H]1O[C@@H](n2cnc3c(NC4CCCC4)ccnc32)C[C@@H]1O | 400 µM
11 | 23 µM | > 100 µM | Nc1cc(Cl)nc2c1ncn2[C@H]1C[C@H](O)[C@@H](CO)O1 | > 100 µM
12 | 97 µM | 20 µM | OC[C@H]1O[C@@H](n2cnc3c(NC4CCC4)ccnc32)C[C@@H]1O | 400 µM
13 | 50 µM | > 100 µM | OC[C@H]1O[C@@H](n2cnc3c(NC4CC4)ccnc32)C[C@@H]1O | > 100 µM
14 | > 100 µM | 8 µM | OC[C@H]1O[C@@H](n2cnc3c(NC4CCCCC4)ccnc32)C[C@@H]1O | 100 µM
15 | 0.25 µM | > 100 µM | CNc1ccnc2c1ncn2[C@H]1C[C@H](O)[C@@H](CO)O1 | > 100 µM
16 | 4.2 µM | > 100 µM | CNc1cc(Cl)nc2c1ncn2[C@H]1C[C@H](O)[C@@H](CO)O1 | > 100 µM
17 | 59 µM | 4 µM | OC[C@H]1O[C@@H](n2cnc3c(NC4CCCCCCC4)ccnc32)C[C@@H]1O | 40 µM
18 | 2.5 µM | > 100 µM | Nc1ccnc2c1ncn2C1CCC(CO)O1 (stereo unspecified) | > 100 µM
19 | 78 µM | 100 µM | OCC1CCC(n2cnc3c(NC4CC4)ccnc32)O1 (stereo unspecified) | 750 µM
20 | 53 µM | 8 µM | OCC1CCC(n2cnc3c(NC4CCCCCC4)ccnc32)O1 (stereo unspecified) | 40 µM
21 | 69 µM | 40 µM | OCC1CCC(n2cnc3c(NC4CCCCC4)ccnc32)O1 (stereo unspecified) | 50 µM
22 | 71 µM | 2 µM | OC[C@H]1OC(n2cnc3c(NC4CCCCCCC4)cc(Cl)nc32)[C@H](O)[C@@H]1O (stereo partly specified) | 40 µM
23 | 80 µM | 4 µM | OC[C@H]1OC(n2cnc3c(NC4CCCCCCC4)ccnc32)[C@H](O)[C@@H]1O (stereo partly specified) | 50 µM
24 | 69 µM | > 100 µM | CNc1cc(Cl)nc2c1ncn2C1O[C@H](CO)[C@@H](O)[C@H]1O (stereo partly specified) | > 100 µM
25 | 12 µM | > 100 µM | CNc1ccnc2c1ncn2C1O[C@H](CO)[C@@H](O)[C@H]1O (stereo partly specified) | > 100 µM

Row | Structure (SMILES) | Ki (Adenosine deaminase) | EC50 [1] | CC50 [2]
26 | Nc1ccnc2c1ncn2[C@@H]1O[C@H](CO)[C@@H](O)[C@H]1O | 0.38 µM | > 100 µM | 2 µM
27 | OCC1CCC(n2cnc3c(NC4CCCCCCC4)cc(Cl)nc32)O1 (stereo unspecified) | > 100 µM | 0.4 µM | 10 µM
28 | OCC1CCC(n2cnc3c(NC4CCCCC4)cc(Cl)nc32)O1 (stereo unspecified) | > 100 µM | 4 µM | 20 µM
29 | OCC1CCC(n2cnc3c(NC4CCCCCC4)cc(Cl)nc32)O1 (stereo unspecified) | > 100 µM | 0.8 µM | 8 µM
30 | OCC1CCC(n2cnc3c(NC4CCCC4)ccnc32)O1 (stereo unspecified) | > 100 µM | 80 µM | 500 µM
31 | OCC1CCC(n2cnc3c(NC4CCCC4)cc(Cl)nc32)O1 (stereo unspecified) | > 100 µM | 20 µM | 50 µM
32 | OCC1CCC(n2cnc3c(NC4CCC4)cc(Cl)nc32)O1 (stereo unspecified) | > 100 µM | 4 µM | 250 µM
33 | OCC1CCC(n2cnc3c(NC4CCCCCCC4)ccnc32)O1 (stereo unspecified) | > 100 µM | 0.8 µM | 10 µM
34 | OC[C@H]1O[C@@H](n2cnc3c(NC4CCCCC4)ccnc32)[C@H](O)[C@@H]1O | > 100 µM | 100 µM | 400 µM
35 | OC[C@H]1O[C@@H](n2cnc3c(NC4CCCC4)ccnc32)[C@H](O)[C@@H]1O | > 100 µM | 16 µM | 400 µM
36 | OC[C@H]1O[C@@H](n2cnc3c(NC4CCCC4)cc(Cl)nc32)[C@H](O)[C@@H]1O | > 100 µM | 10 µM | 100 µM
37 | OC[C@H]1O[C@@H](n2cnc3c(NC4CCCCC4)cc(Cl)nc32)[C@H](O)[C@@H]1O | > 100 µM | 20 µM | 50 µM
38 | OC[C@H]1O[C@@H](n2cnc3c(NC4CC4)cc(Cl)nc32)[C@H](O)[C@@H]1O | > 100 µM | 30 µM | 500 µM
39 | Nc1ncnc2c1ncn2[C@H]1CC[C@@H](CO)O1 | – | 2 µM | > 100 µM
40 | Nc1cc(Cl)nc2c1ncn2C1CCC(CO)O1 (stereo unspecified) | > 100 µM | > 100 µM | > 100 µM
41 | OC[C@H]1O[C@@H](n2cnc3c(NC4CCCC4)cc(Cl)nc32)C[C@@H]1O | > 100 µM | 0.8 µM | 7 µM
42 | OC[C@H]1O[C@@H](n2cnc3c(NC4CCCCCC4)cc(Cl)nc32)C[C@@H]1O | > 100 µM | 0.2 µM | 5 µM
43 | OC[C@H]1O[C@@H](n2cnc3c(NC4CCCCC4)cc(Cl)nc32)C[C@@H]1O | > 100 µM | 4 µM | 100 µM
44 | OC[C@H]1O[C@@H](n2cnc3c(NC4CCC4)cc(Cl)nc32)C[C@@H]1O | > 100 µM | 4 µM | 400 µM
45 | Nc1ccnc2c1ncn2[C@H]1C[C@H](O)[C@@H](CO)O1 | 0.19 µM | > 100 µM | > 100 µM
46 | OC[C@H]1O[C@@H](n2cnc3c(NC4CCCCCCC4)cc(Cl)nc32)C[C@@H]1O | > 100 µM | 2 µM | 40 µM
47 | OCC1CCC(n2cnc3c(NC4CC4)cc(Cl)nc32)O1 (stereo unspecified) | > 100 µM | > 100 µM | > 100 µM
48 | OC[C@H]1OC(n2cnc3c(NC4CCCCCC4)ccnc32)[C@H](O)[C@@H]1O (stereo partly specified) | > 100 µM | 20 µM | 100 µM
49 | OC[C@H]1OC(n2cnc3c(NC4CCCCCC4)cc(Cl)nc32)[C@H](O)[C@@H]1O (stereo partly specified) | > 100 µM | 8 µM | 50 µM
